The target of one assay is T1, Aminopeptidase N (Sus scrofa, UniProt P15145).
T1 sequence (P15145 whole entry): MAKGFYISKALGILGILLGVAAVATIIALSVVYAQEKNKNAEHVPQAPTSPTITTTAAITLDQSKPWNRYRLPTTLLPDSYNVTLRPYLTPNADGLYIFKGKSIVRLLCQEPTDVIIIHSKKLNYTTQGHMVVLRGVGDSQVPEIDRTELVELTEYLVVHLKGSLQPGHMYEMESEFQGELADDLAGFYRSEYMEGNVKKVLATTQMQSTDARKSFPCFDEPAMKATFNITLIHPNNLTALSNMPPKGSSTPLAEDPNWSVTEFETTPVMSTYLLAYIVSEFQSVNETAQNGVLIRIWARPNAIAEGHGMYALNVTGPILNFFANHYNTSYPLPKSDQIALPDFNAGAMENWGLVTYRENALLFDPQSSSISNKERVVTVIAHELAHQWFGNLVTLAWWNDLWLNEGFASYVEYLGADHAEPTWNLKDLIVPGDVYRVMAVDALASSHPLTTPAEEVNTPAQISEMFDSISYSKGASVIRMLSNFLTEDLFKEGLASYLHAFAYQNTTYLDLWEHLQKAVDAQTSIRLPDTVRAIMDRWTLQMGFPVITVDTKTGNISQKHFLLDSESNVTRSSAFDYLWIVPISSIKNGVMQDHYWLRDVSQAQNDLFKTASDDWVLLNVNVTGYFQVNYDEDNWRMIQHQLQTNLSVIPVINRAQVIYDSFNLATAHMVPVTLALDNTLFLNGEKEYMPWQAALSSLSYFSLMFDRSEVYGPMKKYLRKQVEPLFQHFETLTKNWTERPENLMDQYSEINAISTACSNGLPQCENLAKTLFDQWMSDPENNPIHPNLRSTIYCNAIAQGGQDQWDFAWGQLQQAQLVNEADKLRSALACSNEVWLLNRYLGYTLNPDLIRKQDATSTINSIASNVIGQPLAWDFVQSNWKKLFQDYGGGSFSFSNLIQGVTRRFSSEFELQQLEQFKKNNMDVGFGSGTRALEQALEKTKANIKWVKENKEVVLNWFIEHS
In words: Inhibition of pig microsomal aminopeptidase N using L-leu-p-nitroanilide as substrate incubated for 5 mins prior to substrate addition measured after 30 mins by spectrophotometric analysis.

A short description of assay [1]: Metal chelating activity assessed as affinity to Zn2+ by spectrophotometry. The class given is functional.
Assay [2] addresses Histone deacetylase 1/3/5/8 (Homo sapiens, UniProt Q13547+O15379+Q9UQL6+Q9BY41). In words: Inhibition of HDAC1/HDAC3/HDAC5/HDAC8 in human HeLa nuclear extract using Boc-Lys(acetyl)-AMC as substrate incubated for 5 mins prior to substrate measured after 30 mins by spectrophotometric analysis. The class given is protein assay.

SMILES strings stand for the structures. The source made the active and inactive calls. No cut-off for these calls is given here.

The values below come from ChEMBL document CHEMBL2413034, “Novel β-dicarbonyl derivatives as inhibitors of aminopeptidase N (APN)” (Bioorg Med Chem Lett, 2013).

Broadly, the IC50 is the concentration that gives 50% inhibition. A low value points to inhibition by little substance.

`CC(C)C[C@H](NC(=O)CC(=O)[C@H](N)Cc1ccccc1)C(=O)O`: the IC50 was 1.41 µM against Aminopeptidase N and greater than 1000 µM in assay [2]. For the same compound, the result in assay [1] was Active.

`COC(=O)CC(=O)[C@@H](Cc1ccccc1)NC(=O)OC(C)(C)C`: the concentration for half-maximal inhibition (IC50) (at Aminopeptidase N; in assay [2]) was greater than 1000 µM each time.

Turning to `N[C@H](Cc1ccccc1)C(=O)CC(=O)N[C@H](C(=O)O)c1ccccc1`, the IC50 against Aminopeptidase N is 3.82 µM; in assay [2] it was greater than 1000 µM.

On Aminopeptidase N, `COc1cc(/C=C/C(=O)CC(=O)/C=C/c2ccc(O)c(OC)c2)ccc1O` [CURCUMIN] returned an IC50 of 15.5 µM.

For `COC(=O)[C@H](CC(C)C)NC(=O)CC(=O)[C@H](N)Cc1ccccc1`, the IC50 at Aminopeptidase N was 5.04 µM; in assay [2] it was greater than 1000 µM.

As for `COC(=O)[C@H](Cc1ccccc1)NC(=O)CC(=O)[C@@H](Cc1ccccc1)NC(=O)OC(C)(C)C`, the IC50 (against Aminopeptidase N; in assay [2]) was greater than 1000 µM in each case.

As for `CC(C)(C)OC(=O)N[C@H](Cc1ccccc1)C(=O)CC(=O)OCc1ccccc1`, the IC50 (on Aminopeptidase N; in assay [2]) was greater than 1000 µM in each case.

On to `N[C@H](Cc1ccccc1)C(=O)CC(=O)N[C@@H](Cc1ccccc1)C(=O)O`, for which the values for the IC50 (at Aminopeptidase N; in assay [2]) were 4.73 µM and greater than 1000 µM, respectively.

As for `COC(=O)[C@H](Cc1ccccc1)NC(=O)CC(=O)[C@H](N)Cc1ccccc1`, the IC50 at Aminopeptidase N is 7.02 µM; in assay [2] it was greater than 1000 µM.

In the case of `COC(=O)[C@@H](NC(=O)CC(=O)[C@@H](Cc1ccccc1)NC(=O)OC(C)(C)C)c1ccccc1`, the IC50 (against Aminopeptidase N; in assay [2]) was greater than 1000 µM in each case.

Consider `COC(=O)[C@@H](NC(=O)CC(=O)[C@H](N)Cc1ccccc1)c1ccccc1`, for which the IC50 is 6.03 µM against Aminopeptidase N and greater than 1000 µM in assay [2].

On to `N[C@H](Cc1ccccc1)C(=O)CC(=O)OCc1ccccc1`, for which the IC50 on Aminopeptidase N is 711 µM; in assay [2] it was greater than 1000 µM.

Regarding `COC(=O)[C@H](CC(C)C)NC(=O)CC(=O)[C@@H](Cc1ccccc1)NC(=O)OC(C)(C)C`, the concentration for half-maximal inhibition (IC50) (against Aminopeptidase N; in assay [2]) was greater than 1000 µM throughout.

On to `COC(=O)CC(=O)[C@H](N)Cc1ccccc1`, for which the IC50 at Aminopeptidase N was 984 µM; in assay [2], greater than 1000 µM.

The compound `CC(C)C[C@H](NC(=O)[C@@H](O)[C@H](N)Cc1ccccc1)C(=O)O` [UBENIMEX] displayed an IC50 in assay [2] greater than 1000 µM.
